# Experimental data: ChEMBL document CHEMBL1201862, “PubChem BioAssay data set” (2004)
#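 Values below derive from 48-hour exposures of cells grown in 96-well plates, with endpoints linearly interpolated between the two concentrations bracketing the appropriate inhibition level. GI50: concentration for 50% inhibition of growth.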 Active and inactive are the calls of the source. No stated cut-off is given here; in the data, active = GI50 up to about 1.1 µM and inactive = higher.
# Assays:
# Test in all cases: DTP human tumour cell line panel, 48 h
# 786-0 = tested on: 786-0
# A549 = tested on: A549
# ACHN = tested on: ACHN
# BT-549 = tested on: BT-549
# CAKI-1 = tested on: CAKI-1
# CCRF-CEM = tested on: CCRF-CEM
# COLO 205 = tested on: COLO 205
# DU-145 = tested on: DU-145
# EKVX = tested on: EKVX
# HCC 2998 = tested on: HCC 2998
# HCT-116 = tested on: HCT-116
# HCT-15 = tested on: HCT-15
# HL-60 = tested on: HL-60
# HOP-62 = tested on: HOP-62
# HOP-92 = tested on: HOP-92
# HT-29 = tested on: HT-29
# Hs-578T = tested on: Hs-578T
# K562 = tested on: K562
# KM12 = tested on: KM12
# LOX IMVI = tested on: LOX IMVI
# M14 = tested on: M14
# MCF7 = tested on: MCF7
# MDA-MB-231 = tested on: MDA-MB-231
# MDA-MB-435 = tested on: MDA-MB-435
# MOLT-4 = tested on: MOLT-4
# Malme-3M = tested on: Malme-3M
# NCI-H226 = tested on: NCI-H226
# NCI-H23 = tested on: NCI-H23
# NCI-H460 = tested on: NCI-H460
# NCI-H522 = tested on: NCI-H522
# OVCAR-3 = tested on: OVCAR-3
# OVCAR-4 = tested on: OVCAR-4
# OVCAR-5 = tested on: OVCAR-5
# OVCAR-8 = tested on: OVCAR-8
# PC-3 = tested on: PC-3
# RPMI-8226 = tested on: RPMI-8226
# RXF 393 = tested on: RXF 393
# SF-268 = tested on: SF-268
# SF-295 = tested on: SF-295
# SF-539 = tested on: SF-539
# SK-MEL-28 = tested on: SK-MEL-28
# SK-MEL-2 = tested on: SK-MEL-2
# SK-OV-3 = tested on: SK-OV-3
# SN12C = tested on: SN12C
# SNB-19 = tested on: SNB-19
# SNB-75 = tested on: SNB-75
# SR = tested on: SR
# SW-620 = tested on: SW-620
# T47D = tested on: T47D
# TK-10 = tested on: TK-10
# U-251 = tested on: U-251
# UACC-257 = tested on: UACC-257
# UACC-62 = tested on: UACC-62
# UO-31 = tested on: UO-31
# A498 = tested on: A498
# IGROV-1 = tested on: IGROV-1
# NCI/ADR-RES = tested on: NCI/ADR-RES
# SK-MEL-5 = tested on: SK-MEL-5
compound,measurement,setting,value
Nc1sc2c(c1C(=O)c1ccc(Cl)c(Cl)c1)CCCC2,GI50,786-0,68.7 µM (inactive)
same,GI50,A549,51.9 µM (inactive)
same,GI50,ACHN,67.3 µM (inactive)
same,GI50,BT-549,20.3 µM (inactive)
same,GI50,CAKI-1,56.8 µM (inactive)
same,GI50,CCRF-CEM,26.4 µM (inactive)
same,GI50,COLO 205,32.3 µM (inactive)
same,GI50,DU-145,> 100 µM (inactive)
same,GI50,EKVX,29.1 µM (inactive)
same,GI50,HCC 2998,17.3 µM (inactive)
same,GI50,HCT-116,40.4 µM (inactive)
same,GI50,HCT-15,50.6 µM
same,GI50,HL-60,22.6 µM (inactive)
same,GI50,HOP-62,83.6 µM (inactive)
same,GI50,HOP-92,24.5 µM (inactive)
same,GI50,HT-29,36.4 µM (inactive)
same,GI50,Hs-578T,70.8 µM (inactive)
same,GI50,K562,25.5 µM (inactive)
same,GI50,KM12,22.3 µM (inactive)
same,GI50,LOX IMVI,40.3 µM (inactive)
same,GI50,M14,44.1 µM (inactive)
same,GI50,MCF7,18.7 µM (inactive)
same,GI50,MDA-MB-231,> 100 µM (inactive)
same,GI50,MDA-MB-435,30.8 µM (inactive)
same,GI50,MOLT-4,21.7 µM (inactive)
same,GI50,Malme-3M,59.4 µM (inactive)
same,GI50,NCI-H226,> 100 µM (inactive)
same,GI50,NCI-H23,45.3 µM (inactive)
same,GI50,NCI-H460,40.1 µM (inactive)
same,GI50,NCI-H522,21 µM (inactive)
same,GI50,OVCAR-3,60.4 µM (inactive)
same,GI50,OVCAR-4,28.7 µM (inactive)
same,GI50,OVCAR-5,> 100 µM (inactive)
same,GI50,OVCAR-8,67 µM (inactive)
same,GI50,PC-3,44.1 µM (inactive)
same,GI50,RPMI-8226,17.8 µM (inactive)
same,GI50,RXF 393,27.2 µM (inactive)
same,GI50,SF-268,45.8 µM (inactive)
same,GI50,SF-295,37.2 µM (inactive)
same,GI50,SF-539,71.8 µM (inactive)
same,GI50,SK-MEL-28,> 100 µM (inactive)
same,GI50,SK-MEL-2,15 µM (inactive)
same,GI50,SK-OV-3,> 100 µM (inactive)
same,GI50,SN12C,> 100 µM (inactive)
same,GI50,SNB-19,64.1 µM (inactive)
same,GI50,SNB-75,12.1 µM (inactive)
same,GI50,SR,27.8 µM (inactive)
same,GI50,SW-620,35.7 µM (inactive)
same,GI50,T47D,36.2 µM (inactive)
same,GI50,TK-10,41.9 µM (inactive)
same,GI50,U-251,45 µM (inactive)
same,GI50,UACC-257,54.8 µM (inactive)
same,GI50,UACC-62,92 µM (inactive)
same,GI50,UO-31,58.2 µM (inactive)
O=C(O)c1ccc(Oc2nc3ccccc3s2)cc1,GI50,786-0,> 100 µM (inactive)
same,GI50,A498,> 100 µM (inactive)
same,GI50,A549,> 100 µM (inactive)
same,GI50,ACHN,> 100 µM (inactive)
same,GI50,BT-549,> 100 µM (inactive)
same,GI50,CAKI-1,> 100 µM (inactive)
same,GI50,CCRF-CEM,> 100 µM (inactive)
same,GI50,COLO 205,> 100 µM (inactive)
same,GI50,DU-145,> 100 µM (inactive)
same,GI50,EKVX,> 100 µM (inactive)
same,GI50,HCT-116,> 100 µM (inactive)
same,GI50,HCT-15,> 100 µM
same,GI50,HL-60,> 100 µM (inactive)
same,GI50,HOP-62,> 100 µM (inactive)
same,GI50,HOP-92,87.9 µM (inactive)
same,GI50,HT-29,> 100 µM (inactive)
same,GI50,Hs-578T,64.4 µM (inactive)
same,GI50,IGROV-1,> 100 µM (inactive)
same,GI50,K562,> 100 µM (inactive)
same,GI50,KM12,> 100 µM (inactive)
same,GI50,LOX IMVI,> 100 µM (inactive)
same,GI50,M14,> 100 µM (inactive)
same,GI50,MCF7,> 100 µM (inactive)
same,GI50,MDA-MB-231,> 100 µM (inactive)
same,GI50,MDA-MB-435,> 100 µM (inactive)
same,GI50,MOLT-4,> 100 µM (inactive)
same,GI50,Malme-3M,> 100 µM (inactive)
same,GI50,NCI-H226,> 100 µM (inactive)
same,GI50,NCI-H23,> 100 µM (inactive)
same,GI50,NCI-H460,> 100 µM (inactive)
same,GI50,NCI-H522,> 100 µM (inactive)
same,GI50,NCI/ADR-RES,> 100 µM (inactive)
same,GI50,OVCAR-3,> 100 µM (inactive)
same,GI50,OVCAR-4,> 100 µM (inactive)
same,GI50,OVCAR-5,> 100 µM (inactive)
same,GI50,OVCAR-8,> 100 µM (inactive)
same,GI50,PC-3,> 100 µM (inactive)
same,GI50,RPMI-8226,74 µM (inactive)
same,GI50,RXF 393,> 100 µM (inactive)
same,GI50,SF-268,> 100 µM (inactive)
same,GI50,SF-295,> 100 µM (inactive)
same,GI50,SF-539,> 100 µM (inactive)
same,GI50,SK-MEL-28,> 100 µM (inactive)
same,GI50,SK-MEL-2,> 100 µM (inactive)
same,GI50,SK-MEL-5,> 100 µM (inactive)
same,GI50,SK-OV-3,> 100 µM (inactive)
same,GI50,SN12C,> 100 µM (inactive)
same,GI50,SNB-19,> 100 µM (inactive)
same,GI50,SR,85.7 µM (inactive)
same,GI50,SW-620,> 100 µM (inactive)
same,GI50,T47D,> 100 µM (inactive)
same,GI50,TK-10,> 100 µM (inactive)
same,GI50,U-251,> 100 µM (inactive)
same,GI50,UACC-257,> 100 µM (inactive)
same,GI50,UACC-62,> 100 µM (inactive)
same,GI50,UO-31,> 100 µM (inactive)
